“Also recorded” adds a separate entry of the source.
How the values were obtained:
[1] = Whole-body radiation dosimetry in mice, extrapolated to human; type: in vivo
Description: Male CD-1 mice were injected with [^11C]CPPC as described above for baseline studies and were euthanized at 10, 30, 45, 60, and 90 min after treatment. The various organs were quickly removed and percentage injected dose (% ID) per organ was determined. The human radiation dosimetry of [^11C]CPPC was extrapolated from the mouse biodistribution data using SAAM II (Simulation Analysis and Modeling II) and OLINDA/EXM software. The data were analyzed commercially (RADAR, Inc).
Radiation dosimetry for [^11C]CPPC was studied in fifteen male CD-1 mice (23-27 g) following our published procedure (Stabin M G, et al. (2005)). A solution of [^11C]CPPC in 0.2 ml of saline (7.4 MBq or 0.2 mCi) was injected as a bolus into the lateral tail vein, and groups of mice (n=3) were euthanized at 10, 30, 45, 60, and 90 min after the radiotracer injection. The lungs, heart, kidneys, liver, spleen, intestine, stomach, and brain were quickly removed and put on ice. One femur and samples of thigh muscle, bone marrow and blood were also collected. The organs were weighed, and the tissue radioactivity was measured with an automated gamma counter (LKB Wallac 1282 CompuGamma CS Universal Gamma Counter). The percent injected dose per organ (% ID/organ) was calculated by comparison with samples of a standard dilution of the initial dose. All measurements were corrected for decay. Resultant values of % ID/organ were fit using the SAAM II software (Foster D M (1998)). Time integrals of activity (Stabin M G and Siegel J A (2003)) were entered into the OLINDA/EXM software (Stabin M G, et al. (2005)), using the adult male model. […] The number of disintegrations in the remainder of body was assumed to be equal to 100% of the activity administered integrated to total decay of ^11C, minus the disintegrations in other body organs.

[2] = male, baboon, in vivo, 90 min
CSF1R [3] = experiment: Baboon PET (baseline, LPS, LPS-plus-blocking)
CSF1R [4] = target: T1, CSF1R (Mus musculus, UniProt P09581); experiment: Brain uptake in microglia-depleted vs control mice; type: in vivo; parameters: from tissue; host or cells: brain of living CD-1, C57BL/6J, transgenic APP (AD model), EAE and CSF1R KO mice; details: whole brain % SUV, 45 min, PLX3397 chow 290 mg/kg for 3 weeks
T1 sequence (P09581 20-977): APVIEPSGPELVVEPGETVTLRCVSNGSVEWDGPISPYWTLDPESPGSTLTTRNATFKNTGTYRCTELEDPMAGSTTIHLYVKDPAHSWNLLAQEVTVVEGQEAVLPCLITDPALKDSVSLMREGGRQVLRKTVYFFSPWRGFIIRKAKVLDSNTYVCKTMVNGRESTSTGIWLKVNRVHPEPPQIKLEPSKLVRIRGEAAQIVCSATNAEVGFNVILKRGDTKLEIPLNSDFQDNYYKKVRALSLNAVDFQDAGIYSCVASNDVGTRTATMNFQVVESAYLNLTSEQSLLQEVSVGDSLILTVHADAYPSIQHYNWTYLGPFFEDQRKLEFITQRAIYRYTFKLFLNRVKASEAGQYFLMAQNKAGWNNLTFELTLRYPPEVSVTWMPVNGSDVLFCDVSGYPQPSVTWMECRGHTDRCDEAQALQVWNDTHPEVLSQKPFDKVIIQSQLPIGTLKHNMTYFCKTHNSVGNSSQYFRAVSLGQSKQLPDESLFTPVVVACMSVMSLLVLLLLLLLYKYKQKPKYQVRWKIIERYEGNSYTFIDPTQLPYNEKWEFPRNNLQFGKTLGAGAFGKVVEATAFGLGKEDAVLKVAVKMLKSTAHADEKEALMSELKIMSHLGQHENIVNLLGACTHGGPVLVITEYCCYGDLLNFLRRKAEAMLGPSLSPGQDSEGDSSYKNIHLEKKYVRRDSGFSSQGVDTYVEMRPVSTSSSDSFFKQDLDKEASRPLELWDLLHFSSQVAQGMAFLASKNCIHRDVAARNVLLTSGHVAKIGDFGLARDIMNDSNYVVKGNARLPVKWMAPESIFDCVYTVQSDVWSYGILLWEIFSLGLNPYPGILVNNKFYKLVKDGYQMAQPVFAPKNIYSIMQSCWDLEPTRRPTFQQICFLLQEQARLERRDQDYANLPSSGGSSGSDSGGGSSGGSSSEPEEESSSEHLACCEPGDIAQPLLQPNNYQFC
Description: Male C57BL/6J mice (22-24 g) from Charles River Laboratories were purchased. […] The control C57BL/6J mice (5 animals) were fed with standard mouse chow for 3 weeks. On the last day of treatment, all animals were sacrificed by cervical dislocation at 45 min following injection of 5.0 MBq (0.135 mCi) [^11C]CPPC [specific radioactivity=475 GBq/μmol (12.8 Ci/μmol)] in 0.2 mL saline into a lateral tail vein. […] The outcome variables were calculated as % SUV.

[5] = two exponential fit of % ID/organ

## [11CH3]N1CCN(c2ccc(NC(=O)c3ccc(C#N)o3)c(N3CCCCC3)c2)CC1 [[^11C]CPPC, 5-cyano-N-(4-(4-[^11C]methylpiperazin-1-yl)-2-(piperidin-1-yl)phenyl)furan-2-carboxamide]
[1]; CD-1 mice
  Activity observed in the intestines: ~35%
[1]; proposed dose of 740 MBq (20 mCi)
  radiation burden to a human subject vs FDA limit: < 5 Rem
[1]; [5]
  fitted metabolic model, Brain, first component %: 3.83%
  fitted metabolic model, Brain, first component T-bio: 0.302 h
  fitted metabolic model, Brain, second component %: 0.38%
  fitted metabolic model, Brain, second component T-bio: ∞
  fitted metabolic model, Heart, first component %: 1.00%
  fitted metabolic model, Heart, first component T-bio: 0.272 h
  fitted metabolic model, Heart, second component %: 0.14%
  fitted metabolic model, Heart, second component T-bio: ∞
  fitted metabolic model, Kidneys, first component %: 8.32%
  fitted metabolic model, Kidneys, first component T-bio: 0.297 h
  fitted metabolic model, Kidneys, second component %: 1.52%
  fitted metabolic model, Kidneys, second component T-bio: ∞
  fitted metabolic model, Liver, first component %: 97.6%
  fitted metabolic model, Liver, first component T-bio: 0.764 h
  fitted metabolic model, Liver, second component %: −100%
  fitted metabolic model, Liver, second component T-bio: 0.335 h
  fitted metabolic model, Lungs, first component %: 8.27%
  fitted metabolic model, Lungs, first component T-bio: 0.159 h
  fitted metabolic model, Lungs, second component %: 1.53%
  fitted metabolic model, Lungs, second component T-bio: 2.27 h
  fitted metabolic model, Spleen, first component %: 1.43%
  fitted metabolic model, Spleen, first component T-bio: 0.823 h
  fitted metabolic model, Spleen, second component %: −1.24%
  fitted metabolic model, Spleen, second component T-bio: 0.145 h
[2]
  total radiometabolites in blood: 71-76%
CSF1R [3]; LPS-treated baboon (0.05 mg/kg i.v., 4 h before radiotracer)
  parametric VT: 35-52
CSF1R [3]; baboon
  K1 value, LPS-treated vs baseline: changed only slightly
  decrease of metabolite-corrected radioactivity in plasma, LPS-treated vs. baseline: ~50%
CSF1R [3]; baboon baseline
  parametric VT: 15-25
CSF1R [3]; baboon baseline, 20 min postinjection
  peak SUV, brain: 2.5-4.0
CSF1R [3]; baboon, LPS 0.05 mg/kg i.v.
  increase of distribution volume (VT) values in all brain regions of LPS-treated animal: More than a twofold increase
CSF1R [3]; baboon, blocker CPPC 1 mg/kg s.c. 1.5 h before radiotracer
  VT in LPS-plus-blocking study: reduction to the baseline level; also recorded: return to the baseline level
CSF1R [4]
  reduction in radiotracer uptake in microglia-depleted mouse brain vs controls: 14%
